Ki data for 20 compounds are collected here from patent US8921376B2, “Pyrrolopyridines useful as inhibitors of protein kinase” (Vertex Pharmaceuticals Incorporated, priority 2005, dated 2014).

Format in all cases: biochemical
Common to all, as to conditions: Table 6; enzyme inhibition data (Ki)

One assay deals with T1, JAK3 (Homo sapiens, UniProt P52333).
T1 sequence (P52333 1-1124): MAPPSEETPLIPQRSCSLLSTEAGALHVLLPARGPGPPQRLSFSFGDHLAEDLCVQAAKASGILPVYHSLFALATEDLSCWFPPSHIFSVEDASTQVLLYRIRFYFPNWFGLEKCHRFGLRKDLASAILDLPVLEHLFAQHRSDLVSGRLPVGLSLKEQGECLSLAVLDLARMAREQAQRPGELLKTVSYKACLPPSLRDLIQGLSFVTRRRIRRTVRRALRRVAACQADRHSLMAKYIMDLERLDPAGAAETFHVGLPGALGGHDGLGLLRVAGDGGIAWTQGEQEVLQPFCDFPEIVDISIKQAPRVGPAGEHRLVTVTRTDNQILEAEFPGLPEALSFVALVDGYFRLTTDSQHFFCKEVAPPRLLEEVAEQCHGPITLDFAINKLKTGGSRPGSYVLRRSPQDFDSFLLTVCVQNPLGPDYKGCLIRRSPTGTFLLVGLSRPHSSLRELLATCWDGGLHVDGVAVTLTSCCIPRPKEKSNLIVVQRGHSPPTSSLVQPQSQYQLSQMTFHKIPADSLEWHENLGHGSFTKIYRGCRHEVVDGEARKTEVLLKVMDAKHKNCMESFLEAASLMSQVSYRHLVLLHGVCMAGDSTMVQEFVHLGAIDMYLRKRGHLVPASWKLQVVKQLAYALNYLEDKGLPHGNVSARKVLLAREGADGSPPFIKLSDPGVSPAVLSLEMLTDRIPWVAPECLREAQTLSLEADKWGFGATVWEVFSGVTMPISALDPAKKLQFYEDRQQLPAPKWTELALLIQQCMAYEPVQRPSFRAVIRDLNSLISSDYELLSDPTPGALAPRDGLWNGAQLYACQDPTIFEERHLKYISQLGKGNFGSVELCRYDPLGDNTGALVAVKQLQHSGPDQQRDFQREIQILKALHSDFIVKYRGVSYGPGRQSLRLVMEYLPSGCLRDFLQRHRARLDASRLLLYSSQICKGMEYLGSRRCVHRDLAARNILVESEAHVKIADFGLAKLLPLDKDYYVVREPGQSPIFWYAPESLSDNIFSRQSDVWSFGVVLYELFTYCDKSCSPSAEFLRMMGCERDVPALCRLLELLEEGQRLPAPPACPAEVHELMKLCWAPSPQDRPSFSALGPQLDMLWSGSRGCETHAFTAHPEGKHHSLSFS
The assay can be described thus: JAK3 inhibition assay (33P incorporation into poly(Glu)4Tyr). The gist of the method: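 Human JAK3 at 1 nM phosphorylated 1 μM poly(Glu)4Tyr using 5 μM [33P]ATP in HEPES pH 7.4 buffer with MgCl2, DTT and BSA. Reactions ran 20 min at 25° C. and were stopped with TCA. 33P incorporation was measured by scintillation after glass-fiber filter capture.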

The target of another assay is ROCK I (Homo sapiens, UniProt Q13464). Nature of the assay: ROCK-I inhibition assay (radioactive enzyme assay, MBP substrate). In short, it runs like this: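 Human ROCK at 5 nM phosphorylated 27 μM myelin basic protein with 13 μM [γ-33P]ATP (final) in HEPES pH 7.5, MgCl2, NaCl, DTT and 1.5% DMSO. Reactions ran 2 h at room temperature before TCA quench and filter-plate scintillation counting. After background subtraction, data were fit to give Ki(app).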
ROCK I, sequence (Q13464 whole entry): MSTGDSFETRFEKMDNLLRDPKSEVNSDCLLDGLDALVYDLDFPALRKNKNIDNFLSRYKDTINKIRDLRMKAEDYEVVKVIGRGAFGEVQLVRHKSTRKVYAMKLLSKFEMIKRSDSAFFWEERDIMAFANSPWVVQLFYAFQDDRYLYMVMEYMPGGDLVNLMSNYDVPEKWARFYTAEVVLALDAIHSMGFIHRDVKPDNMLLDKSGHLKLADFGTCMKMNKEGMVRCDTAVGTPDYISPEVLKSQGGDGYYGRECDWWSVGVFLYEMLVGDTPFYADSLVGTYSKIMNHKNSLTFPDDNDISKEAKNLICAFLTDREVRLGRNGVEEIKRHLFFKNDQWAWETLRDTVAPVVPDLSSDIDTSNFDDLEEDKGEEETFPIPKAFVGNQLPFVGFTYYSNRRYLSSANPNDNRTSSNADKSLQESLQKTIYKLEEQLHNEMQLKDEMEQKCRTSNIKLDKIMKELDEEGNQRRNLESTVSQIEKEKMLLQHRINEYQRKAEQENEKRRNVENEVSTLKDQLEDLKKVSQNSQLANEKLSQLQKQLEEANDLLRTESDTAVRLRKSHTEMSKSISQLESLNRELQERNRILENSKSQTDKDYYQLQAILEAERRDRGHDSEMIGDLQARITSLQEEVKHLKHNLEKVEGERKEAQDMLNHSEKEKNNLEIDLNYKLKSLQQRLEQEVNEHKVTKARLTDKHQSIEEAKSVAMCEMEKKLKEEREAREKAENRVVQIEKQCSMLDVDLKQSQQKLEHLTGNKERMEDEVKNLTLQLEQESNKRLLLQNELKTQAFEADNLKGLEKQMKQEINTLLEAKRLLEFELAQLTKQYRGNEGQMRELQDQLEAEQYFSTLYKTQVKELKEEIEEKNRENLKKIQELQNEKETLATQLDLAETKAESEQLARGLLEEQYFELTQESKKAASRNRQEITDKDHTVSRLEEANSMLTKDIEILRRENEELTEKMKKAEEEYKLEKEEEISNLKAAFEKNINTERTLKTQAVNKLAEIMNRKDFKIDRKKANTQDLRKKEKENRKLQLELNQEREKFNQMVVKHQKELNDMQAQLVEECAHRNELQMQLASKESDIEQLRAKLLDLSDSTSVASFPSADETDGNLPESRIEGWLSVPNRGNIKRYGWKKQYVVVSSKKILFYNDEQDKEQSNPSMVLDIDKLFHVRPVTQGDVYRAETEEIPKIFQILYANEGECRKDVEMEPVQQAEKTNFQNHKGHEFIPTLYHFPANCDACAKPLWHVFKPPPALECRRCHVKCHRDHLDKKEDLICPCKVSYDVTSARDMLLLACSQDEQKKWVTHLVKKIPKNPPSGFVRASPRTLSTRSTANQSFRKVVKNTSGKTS

A further assay concerns the target JAK2 (Homo sapiens, UniProt O60674). The assay can be described thus: JAK2 inhibition assay (as Example 3 with JAK-2 enzyme). The gist of the method:
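Radiometric JAK2 kinase assay: poly(Glu)4Tyr substrate at final 15 μM, ATP at final 12 μM with [33P]; buffer 100 mM HEPES pH 7.4, 1 mM DTT, 10 mM MgCl2, 25 mM NaCl, 0.01% BSA. 20 min at 25 °C, TCA-stopped, 33P incorporation counted after filter capture.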

JAK2, sequence (O60674 whole entry): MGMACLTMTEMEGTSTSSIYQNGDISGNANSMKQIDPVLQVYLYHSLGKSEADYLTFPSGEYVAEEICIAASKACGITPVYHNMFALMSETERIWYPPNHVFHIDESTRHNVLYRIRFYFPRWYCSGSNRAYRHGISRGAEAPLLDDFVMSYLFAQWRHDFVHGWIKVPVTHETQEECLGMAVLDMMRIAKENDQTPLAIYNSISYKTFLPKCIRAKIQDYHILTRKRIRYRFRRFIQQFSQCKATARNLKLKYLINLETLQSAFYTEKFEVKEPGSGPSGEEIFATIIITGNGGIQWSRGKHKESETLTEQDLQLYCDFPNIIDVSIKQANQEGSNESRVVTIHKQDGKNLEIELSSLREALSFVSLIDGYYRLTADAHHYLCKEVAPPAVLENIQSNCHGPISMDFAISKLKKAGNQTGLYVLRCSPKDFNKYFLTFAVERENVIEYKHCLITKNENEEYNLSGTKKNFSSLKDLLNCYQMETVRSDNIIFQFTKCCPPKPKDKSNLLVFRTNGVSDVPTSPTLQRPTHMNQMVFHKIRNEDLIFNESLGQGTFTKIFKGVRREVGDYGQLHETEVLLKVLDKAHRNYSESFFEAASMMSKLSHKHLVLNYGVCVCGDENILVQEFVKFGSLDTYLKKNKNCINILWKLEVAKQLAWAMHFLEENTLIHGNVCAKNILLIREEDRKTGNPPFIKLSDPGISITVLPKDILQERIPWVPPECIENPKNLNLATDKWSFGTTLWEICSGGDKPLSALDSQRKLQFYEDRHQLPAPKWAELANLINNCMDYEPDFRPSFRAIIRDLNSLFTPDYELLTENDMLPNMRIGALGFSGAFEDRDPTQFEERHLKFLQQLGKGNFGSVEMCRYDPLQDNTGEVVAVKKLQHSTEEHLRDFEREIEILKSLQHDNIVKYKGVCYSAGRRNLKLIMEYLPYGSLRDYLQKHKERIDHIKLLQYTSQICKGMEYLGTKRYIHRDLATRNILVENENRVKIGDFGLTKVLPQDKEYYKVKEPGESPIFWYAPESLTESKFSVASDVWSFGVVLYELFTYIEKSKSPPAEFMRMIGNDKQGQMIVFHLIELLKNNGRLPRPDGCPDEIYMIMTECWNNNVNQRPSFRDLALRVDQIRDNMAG

Usually Ki stands for the equilibrium dissociation constant of an inhibitor or competing ligand from its target. Consider `N#Cc1ccc(Nc2c(Cl)cnc3[nH]ccc23)c(Cl)c1` [compound 163], for which the inhibition constant (Ki) at JAK3 was less than 0.5 µM; at ROCK I, more than 4 µM; on JAK2 it was less than 0.5 µM.

In the case of `CC(C)(C)OC(=O)N1CCC[C@@H](Nc2c(Cl)cnc3[nH]ccc23)C1` [compound 164], the values for the Ki on JAK3, on ROCK I and at JAK2 were less than 0.5 µM, more than 4 µM and less than 0.5 µM, respectively.

Take `C#CCOC(=O)N1CC[C@H](Nc2c(Cl)cnc3[nH]ccc23)C1` [compound 165]: the values for the Ki on JAK3, on ROCK I and on JAK2 were less than 0.5 µM, more than 4 µM and less than 0.5 µM, respectively.

In the case of `COC(=O)N1CC[C@H](Nc2c(Cl)cnc3[nH]ccc23)C1` [compound 166], the Ki on JAK3 was 0.5 to 5 µM; on ROCK I it was more than 4 µM; at JAK2 it was less than 0.5 µM.

On to `CCCOC(=O)N1CC[C@H](Nc2c(Cl)cnc3[nH]ccc23)C1` [compound 167], for which the figures for the Ki at JAK3, at ROCK I and on JAK2 were less than 0.5 µM, more than 4 µM and less than 0.5 µM, respectively.

`CCC(=O)N1CC[C@H](Nc2c(Cl)cnc3[nH]ccc23)C1` [compound 168]: the Ki was 0.5 to 5 µM at JAK3, more than 4 µM at ROCK I and less than 0.5 µM on JAK2.

Turning to `C#CCOC(=O)N1CC[C@@H](Nc2c(Cl)cnc3[nH]ccc23)C1` [compound 169], the Ki on JAK3 was less than 0.5 µM; on ROCK I, 0.5 to 5 µM; on JAK2, less than 0.5 µM.

As for `COC(=O)N1CC[C@@H](Nc2c(Cl)cnc3[nH]ccc23)C1` [compound 170], the Ki at JAK3 was less than 0.5 µM; at ROCK I it was 0.5 to 5 µM; at JAK2, less than 0.5 µM.

Turning to `CCCOC(=O)N1CC[C@@H](Nc2c(Cl)cnc3[nH]ccc23)C1` [compound 171], the Ki at JAK3 is less than 0.5 µM; on ROCK I it was 0.5 to 5 µM; on JAK2, less than 0.5 µM.

On to `C#CCOC(=O)N1CCCC(Nc2c(Cl)cnc3[nH]ccc23)C1` (stereo not drawn) [compound 172], for which the Ki on JAK3 was less than 0.5 µM; at ROCK I, 0.5 to 5 µM; at JAK2 it was less than 0.5 µM.

Take `COC(=O)N1CCCC(Nc2c(Cl)cnc3[nH]ccc23)C1` (stereo not drawn) [compound 173]: the inhibition constant Ki on JAK3 was less than 0.5 µM; on ROCK I, 0.5 to 5 µM; at JAK2, less than 0.5 µM.

Turning to `CCCOC(=O)N1CCCC(Nc2c(Cl)cnc3[nH]ccc23)C1` (stereo not drawn) [compound 174], the Ki at JAK3 is less than 0.5 µM; at ROCK I, 0.5 to 5 µM; at JAK2, less than 0.5 µM.

For the compound `CCC(=O)N1CCCC(Nc2c(Cl)cnc3[nH]ccc23)C1` (stereo not drawn) [compound 175], the Ki at JAK3 is less than 0.5 µM; on ROCK I, more than 4 µM; on JAK2 it was less than 0.5 µM.

Turning to `CCC(=O)N1CC[C@@H](Nc2c(Cl)cnc3[nH]ccc23)C1` [compound 176], the Ki at JAK3 is less than 0.5 µM; at ROCK I it was 0.5 to 5 µM; at JAK2, less than 0.5 µM.

Regarding `CCCS(=O)(=O)N1CCCC(Nc2c(Cl)cnc3[nH]ccc23)C1` (stereo not drawn) [compound 177], the values for the Ki on JAK3, at ROCK I and on JAK2 were less than 0.5 µM, 0.5 to 5 µM and less than 0.5 µM, respectively.

As to `CCCS(=O)(=O)N1CC[C@H](Nc2c(Cl)cnc3[nH]ccc23)C1` [compound 178], the Ki at JAK3 was less than 0.5 µM; on ROCK I, more than 4 µM; on JAK2 it was less than 0.5 µM.

Take `O=S(=O)(C1CC1)N1CC[C@H](Nc2c(Cl)cnc3[nH]ccc23)C1` [compound 179]: the Ki is less than 0.5 µM on JAK3, more than 4 µM on ROCK I and less than 0.5 µM on JAK2.

With `CCCS(=O)(=O)N1CC[C@@H](Nc2c(Cl)cnc3[nH]ccc23)C1` [compound 180], the Ki at JAK3 is less than 0.5 µM; on ROCK I, more than 4 µM; on JAK2, less than 0.5 µM.

Regarding `O=S(=O)(C1CC1)N1CCCC(Nc2c(Cl)cnc3[nH]ccc23)C1` (stereo not drawn) [compound 181], the Ki on JAK3 is less than 0.5 µM; at ROCK I, 0.5 to 5 µM; at JAK2, less than 0.5 µM.

For `CS(=O)(=O)N1CCCC(Nc2c(Cl)cnc3[nH]ccc23)C1` (stereo not drawn) [compound 182], the Ki at JAK3 is less than 0.5 µM; on ROCK I it was 0.5 to 5 µM; on JAK2, less than 0.5 µM.
